{
  "source": "patent US20190083649A1",
  "about": "“CROSSLINKED POLYMER NANO-ASSEMBLIES AND USES THEREOF” (University of Massachusetts, priority 2017, published 2019)",
  "origin": "cited, not measured here",
  "data": [
    {"smiles": "C=C(C)C(=O)OCCN(C(C)C)C(C)C", "note": "[DPA, 2-(diisopropylamino)ethyl methacrylate]", "values": [
      {"measurement": "pKa of the protonated form of the amine", "value": "around 6.2"}
    ]}
  ]
}
